In ChEMBL document CHEMBL1781877, “Synthesis and evaluation of new carbonic anhydrase inhibitors” (2011) one finds Time data, which are given here for eleven molecules.

The experiment concerns Mus musculus. Briefly: Antihypoxic activity in fasted Kunming mouse assessed as survival time of mouse under hypoxic condition at 80 mg/kg administered for 5 days (reference value: 2199 +/-217 secs). Format: functional.
Regarding `CCCN(c1nnc(S(N)(=O)=O)s1)S(=O)(=O)c1ccccc1`, the Time amounted to 3135 s. As for `Cc1ccc(S(=O)(=O)N(Cc2ccccc2)c2nnc(S(N)(=O)=O)s2)cc1`, the figure is 2582 s; as for `Cc1ccc(S(=O)(=O)N(c2nnc(S(N)(=O)=O)s2)C(C)C)cc1`, 2426 s. For `Cc1ccc(S(=O)(=O)N(CC(C)C)c2nnc(S(N)(=O)=O)s2)cc1`, the Time was 3486 s.

Turning to `Cc1ccc(S(=O)(=O)N(CCc2ccccc2)c2nnc(S(N)(=O)=O)s2)cc1`, the Time was found to be 2441 s. As for `Cc1ccc(CN(c2nnc(S(N)(=O)=O)s2)S(=O)(=O)c2ccc(C)cc2)cc1`, the figure is 2512 s; as for `Cc1ccc(S(=O)(=O)N(Cc2ccc(F)cc2)c2nnc(S(N)(=O)=O)s2)cc1`, 2860 s; as for `CCN(c1nnc(S(N)(=O)=O)s1)S(=O)(=O)c1ccccc1`, 2716 s. For the molecule `CCCCN(c1nnc(S(N)(=O)=O)s1)S(=O)(=O)c1ccccc1`, the Time is recorded as 2977 s. On to `CCCCCN(c1nnc(S(N)(=O)=O)s1)S(=O)(=O)c1ccccc1`, for which the Time was found to be 2716 s. In the case of `CC(=O)Nc1nnc(S(N)(=O)=O)s1` [ACETAZOLAMIDE], the Time is listed as 2726 s.
